Tested on: IL-2 production
Test: Inhibition of IL-2 production in PHA-activated Jurkat cells (ELISA)
Type: cell-based
Settings: Homo sapiens, Jurkat, 20 h, PHA 2.5 μg/mL, IL-2 ELISA
Protocol: Jurkat cells were placed in a 96 well plate (0.5 million cells per well in 1% FBS medium) then a test compound of this invention was added at different concentrations. After 10 minutes, the cells were activated with PHA (final concentration 2.5 μg/mL) and incubated for 20 hours at 37° C. under CO2. The final volume was 200 μL. Following incubation, the cells were centrifuged and the supernatants collected and stored at −70° C. prior to assaying for IL-2 production. A commercial ELISA kit (IL-2 Eli-pair, Diaclone Research, Besancon, France) was used to detect production of IL-2, from which dose response curves were obtained.

Structure (SMILES) | IC50 [nM]
Cn1cncc1-c1nc(NC(=O)c2c(F)cccc2F)sc1-c1cccc(C(F)(F)F)c1 [Compound 80, 2,6-Difluoro-N-(4-(1-methyl-1H-imidazol-5-yl)-5-(3-(trifluoromethyl)phenyl)thiazol-2-yl)benzamide] | > 1000
Cc1nc(C)c(-c2nc(NC(=O)c3c(F)cccc3F)sc2-c2cccc(C(F)(F)F)c2)o1 [Compound 81, N-(4-(2,4-dimethyloxazol-5-yl)-5-(3-(trifluoromethyl)phenyl)thiazol-2-yl)-2,6-difluorobenzamide] | > 1000
O=C(Nc1nc(C(O)c2ccccn2)c(-c2cccc(C(F)(F)F)c2)s1)c1c(F)cccc1F (stereo not shown) [Compound 83, 2,6-difluoro-N-(4-(hydroxy(pyridin-2-yl)methyl)-5-(3-(trifluoromethyl)phenyl)thiazol-2-yl)benzamide] | > 1000
CC(=O)c1nc(NC(=O)c2c(F)cccc2F)sc1-c1cccc(C(F)(F)F)c1 [Compound 84, N-(4-Acetyl-5-(3-(trifluoromethyl)phenyl)thiazol-2-yl)-2,6-difluorobenzamide] | 200 to 500
Cc1nc(-c2nc(NC(=O)c3c(F)cccc3F)sc2-c2cccc(C(F)(F)F)c2)cs1 [Compound 86, 2,6-Difluoro-N-(2′-methyl-5-(3-(trifluoromethyl)phenyl)-4,4′-bithiazol-2-yl)benzamide] | 200 to 500
Nc1nc(-c2nc(NC(=O)c3c(F)cccc3F)sc2-c2cccc(C(F)(F)F)c2)cs1 [Compound 87, N-(2′-amino-5-(3-(trifluoromethyl)phenyl)-4,4′-bithiazol-2-yl)-2,6-difluorobenzamide] | > 1000
O=C(Nc1nc(C2=NCCO2)c(-c2cccc(C(F)(F)F)c2)s1)c1c(F)cccc1F [Compound 89, N-(4-(4,5-dihydrooxazol-2-yl)-5-(3-(trifluoromethyl)phenyl)thiazol-2-yl)-2,6-difluorobenzamide] | 200 to 500
O=C(Nc1nc(-c2nnco2)c(-c2cccc(C(F)(F)F)c2)s1)c1c(F)cccc1F [Compound 90, N-(4-(1,3,4-oxadiazol-2-yl)-5-(3-(trifluoromethyl)phenyl)thiazol-2-yl)-2,6-difluorobenzamide] | 200 to 500
O=C(Nc1nc(-c2ncco2)c(-c2cccc(C(F)(F)F)c2)s1)c1c(F)cccc1F [Compound 91, 2,6-difluoro-N-(4-(oxazol-2-yl)-5-(3-(trifluoromethyl)phenyl)thiazol-2-yl)benzamide] | 50 to 100
Cc1noc(-c2nc(NC(=O)c3c(F)cccc3F)sc2-c2cccc(C(F)(F)F)c2)n1 [Compound 92, 2,6-difluoro-N-(4-(3-methyl-1,2,4-oxadiazol-5-yl)-5-(3-(trifluoromethyl)phenyl)thiazol-2-yl)benzamide] | 200 to 500
CON(C)C(=O)c1nc(NC(=O)c2c(F)cccc2F)sc1-c1cccc(C(F)(F)F)c1 [Compound 93, 2-(2,6-difluorobenzamido)-N-methoxy-N-methyl-5-(3-(trifluoromethyl)phenyl)thiazole-4-carboxamide] | > 1000
CCC(=O)c1nc(NC(=O)c2c(F)cccc2F)sc1-c1cccc(C(F)(F)F)c1 [Compound 94, 2,6-difluoro-N-(4-propionyl-5-(3-(trifluoromethyl)phenyl)thiazol-2-yl)benzamide] | 50 to 100
Cc1nc(-c2nc(NC(=O)c3c(F)cccc3F)sc2-c2cccc(C(F)(F)F)c2)c(C)s1 [Compound 95, N-(2′,5′-dimethyl-5-(3-(trifluoromethyl)phenyl)-4,4′-bithiazol-2-yl)-2,6-difluorobenzamide] | > 1000
CCOC(=O)c1nc(-c2nc(NC(=O)c3c(F)cccc3F)sc2-c2cccc(C(F)(F)F)c2)c(C)s1 [Compound 96, Ethyl 2′-(2,6-difluorobenzamido)-5-methyl-5′-(3-(trifluoromethyl)phenyl)-4,4′-bithiazole-2-carboxylate] | > 1000
NC(=O)c1nc(NC(=O)c2c(F)cccc2F)sc1-c1cccc(C(F)(F)F)c1 [Compound 97, 2-(2,6-Difluorobenzamido)-5-(3-(trifluoromethyl)phenyl)thiazole-4-carboxamide] | > 1000
CCOC(CNC(=O)c1nc(NC(=O)c2c(F)cccc2F)sc1-c1cccc(C(F)(F)F)c1)OCC [Compound 98, N-(2,2-diethoxyethyl)-2-(2,6-difluorobenzamido)-5-(3-(trifluoromethyl)phenyl)thiazole-4-carboxamide] | > 1000
O=C(Nc1nc(-c2cc[nH]n2)c(-c2cccc(C(F)(F)F)c2)s1)c1c(F)cccc1F [Compound 100, N-(4-(1H-Pyrazol-3-yl)-5-(3-(trifluoromethyl)phenyl)thiazol-2-yl)-2,6-difluorobenzamide] | 200 to 500
O=C(Nc1nc(Cl)c(-c2cccc(C(F)(F)F)c2)s1)c1c(F)cccc1F [Compound 103, N-(4-Chloro-5-(3-(trifluoromethyl)phenyl)thiazol-2-yl)-2,6-difluorobenzamide] | 200 to 500
O=C(Nc1nc(-c2ccon2)c(-c2cccc(C(F)(F)F)c2)s1)c1c(F)cccc1F [Compound 106, 2,6-Difluoro-N-(4-(isoxazol-3-yl)-5-(3-(trifluoromethyl)phenyl)thiazol-2-yl)benzamide] | 100 to 200
O=C(Nc1nc(-c2ccccn2)c(-c2cccc(C(F)(F)F)c2)s1)c1c(F)cccc1F [Compound 107, 2,6-Difluoro-N-(4-(pyridin-2-yl)-5-(3-(trifluoromethyl)phenyl)thiazol-2-yl)benzamide] | < 30
COc1ccc(-c2nc(NC(=O)c3c(F)cccc3F)sc2-c2cccc(C(F)(F)F)c2)cc1OC [Compound 109, N-(4-(3,4-Dimethoxyphenyl)-5-(3-(trifluoromethyl)phenyl)thiazol-2-yl)-2,6-difluorobenzamide] | > 1000
CN(C)c1ccc(-c2nc(NC(=O)c3c(F)cccc3F)sc2-c2cccc(C(F)(F)F)c2)cc1 [Compound 110, N-(4-(4-(Dimethylamino)phenyl)-5-(3-(trifluoromethyl)phenyl)thiazol-2-yl)-2,6-difluorobenzamide] | > 1000
Cc1cnccc1C(=O)Nc1nc(C(=O)O)c(-c2cccc(C(F)(F)F)c2)s1 [Compound 112, 2-(3-Methylisonicotinamido)-5-(3-(trifluoromethyl)phenyl)thiazole-4-carboxylic acid] | > 1000
COC(=O)c1cccc(-c2sc(NC(=O)c3c(F)cccc3F)nc2C(=O)OC)c1 [Compound 114, Methyl 2-(2,6-difluorobenzamido)-5-(3-(methoxycarbonyl)phenyl)thiazole-4-carboxylate] | > 1000
CCOC(=O)c1nc(-c2sc(NC(=O)c3c(F)cccc3F)nc2C)cs1 [Compound 114a, Ethyl 2′-(2,6-difluorobenzamido)-4′-methyl-4,5′-bithiazole-2-carboxylate] | > 1000
Cc1nc(-c2sc(NC(=O)c3c(F)cccc3F)nc2C)cs1 [Compound 114b, N-(2,4′-Dimethyl-4,5′-bithiazol-2′-yl)-2,6-difluorobenzamide] | > 1000
Cc1nc(C(=O)Nc2c(F)cccc2F)sc1-c1cccc(-c2ncco2)c1 [Compound 116, N-(2,6-difluorophenyl)-4-methyl-5-(3-(oxazol-2-yl)phenyl)thiazole-2-carboxamide] | 50 to 100
COC(=O)c1cccc(-c2sc(C(=O)Nc3c(F)cccc3F)nc2C)c1 [Compound 117, methyl 3-(2-(2,6-difluorophenylcarbamoyl)-4-methylthiazol-5-yl)benzoate] | 100 to 200

From patent publication US8455658B2, “Thiazole and thiadiazole compounds for inflammation and immune-related uses” (Synta Pharmaceuticals Corp., priority 2006, dated 2013)
